Measured values taken from patent EP0249394B1 (THE UNITED STATES OF AMERICA as represented by the …, priority 1986, dated 1993).

System: T4 viral receptors
Experiment: General statements: binding to T4 viral receptors / inhibition of gp 120 binding to brain membranes
Method: Radiolabeling of gp 120, Preparation of Brain Membranes, Binding and Crosslinking of gp120 to Receptor, and Immunoprecipitation of T4 Antigen. HTLV-IIIb isolate of HIV was propaged in H9 cells, and the gp120 was isolated by immunoaffinity chromatography and preparative NaDodSO₄/PAGE. Purified gp120 was labeled with ¹²⁵I by the chloramine-T method.
Fresh human, monkey, and rat hippocampus were quickly homogenized (Polytron, Brinkmann Instruments) in 100 vol of ice-cold 50 mM Hepes (pH 7.4). The membranes collected by centrifugation (15,000 x g) were washed in the original buffer volume and were used fresh or stored at -70°C. Before use, brain membranes and highly purified T cells (ref. 16; gift of Larry Wahl) were preincubated for 15-30 min in phosphate-buffered saline (PBS). Membranes derived from 2mg (initial wet weight) of brain (≈100µg of protein) were incubated with 28,000 cpm of ¹²⁵I-gp120 for 1 hr at 37°C in 200 µl (final volume) of 50 mM Hepes containing 0.1% bovine serum albumin and the peptidase inhibitors bacitracin (0.005%), aprotinin (0.005%), leupeptin (0.001%), and chymostatin (0.001%). Incubations were rapidly vacuum-filtered and counted to determine the receptor-bound material.

“CYS-THR-THR-ASN-TYR-THR-CYS (CTTNYTC; printed: CYS-THR-THR-ASN-TYR-THR-CYS) [seven amino acid peptide]” was tested, and the “activity (test not specified)” value was “active”.
